Assay results published in patent publication US9446019B2, “Sparstolonin B based pharmaceutical agent for neuroblastoma treatment” (University of South Carolina, priority 2013, dated 2016).

Tests used:
neuroblastoma cell lines = assay: Cell cycle analysis by flow cytometry, all lines together; assay type: cell-based, human
Method: The cell cycle progression was determined by flow cytometer analysis. Neuroblastoma cells were treated with SsnB or DMSO in DMEM with 10% FBS. Cells were collected after trypsinization with trypsin-EDTA solution (Atlanta Biologicals) and washed with 1× phosphate buffered saline (PBS). Approximately 1×10^6 cells were suspended in 300 μl of ice-cold 1×PBS, fixed by adding 700 μl of chilled absolute ethanol (to make final ethanol concentration 70%) drop wise and incubated for overnight at −20° C. Cells were pelleted at 1000×rpm for 5 min at 4° C., washed with 1×PBS for 3 times and stained with propidium iodide (Sigma-Aldrich, St. Louis, Mo.) by adding 1 ml of propidium iodide staining solution (containing 20 μg/ml propidium iodide and 10 μg/ml DNase-free RNase A in 0.1% Triton X-100/PBS) for 1 h on ice in dark. Samples were subjected to fluorescence-activated cell sorting analyses utilizing Beckman Coulter flow cytometer (Beckman Coulter, Indianapolis, Ind.). A minimum of 10,000 events were analyzed in each experiment.
To test whether SsnB-induced cell growth inhibition occurs through cell cycle arrest, cell cycle distribution was analyzed by flow cytometry after DNA staining with propidium iodide.

p53 in SH-SY5Y cells = assay: p53 expression by Western blotting; assay type: cell-based, human; details: SsnB 10 μM
Method: After treatment with SsnB, cells were collected, washed with 1×PBS, and lysed with 1× cell lysis buffer (Cell Signaling Technology, Danvers, Mass.) containing phenylmethylsulfonyl fluoride (PMSF) and protease inhibitors (aprotinin and leupeptin) for 30 min on ice, and centrifuged at 12000×rpm for 10 min at 4° C. Supernatant (total cell protein) was collected and stored at −80° C. Protein concentration was determined by bicinchoninic acid method using BCA protein assay kit (Pierce/ThermoScientific, Waltham, Mass.). Equal amount of proteins were diluted with 5× Laemmli samples loading buffer and boiled for five minutes. The proteins were subjected to sodium dodecyl sulfate (SDS)-polyacrylamide gel electrophoresis and analyzed by Western blots. Briefly, after electrophoresis, proteins were transferred on polyvinylidene difluoride (PVDF) membrane at 100 volt for 3 h in cold room. […] Signals were detected by chemiluminiscence detection kit (Pierce/Thermo Fisher Scientific, Rockford, Ill.). […]
At cellular level, mitochondria- or receptor (Fas/FasL)-mediated pathways activate caspase signaling cascade which in turn induces DNA damage and initiates programmed cell death (apoptosis). […] The number of cleaved caspase-3 positive cells were quantitated by ImageJ programme and plotted. […]

[1] = tested on: reactive oxygen species in neuroblastoma cells; assay: ROS generation, H2DCFDA fluorometry assay; assay type: cell-based, human
Method: The production of reactive oxygen species (ROS) in SsnB-treated neuroblastoma cells was detected by a cell-permeable fluorescence probe H2DCFDA (carboxy-2′,7′-dichlorodihydrofluorescein diacetate) according to the manufacturer's instructions (Invitrogen, Carlsbad, Calif.). Briefly, neuroblastoma cells were cultured in DMEM with 10% FBS in Lab-TekII chamber slides (Fisher Scientific, Pittsburg, Pa.) and treated with SsnB for 2 days (SH-SY5Y and IMR-32 cells), 3 days (NGP cell) or 4 days (SKNF-1 and SK-N-BE(2) cells). After treatments, cells were washed with Hank's buffered salt solution (HBSS; Thermo Scientific, Waltham, Mass.) and incubated with 25 μM of carboxy-H2DCFDA dye for 30 min at 37° C. in dark. Nuclei were counterstained with DAPI. Cells were washed three times with HBSS, mounted with Vectashield mounting medium (Vector Laboratories), and immediately examined under Nikon-E600 fluorescence microscopy equipped with fluorescein isothiocyanate (FITC) filter. Oxidation of H2DCFDA probe occurs almost exclusively in the cytosol, and generates a fluorescence that is proportional to ROS generation in that cell. As a negative control, cells without H2DCFDA dye were used to detect autofluorescence. The fluorometric analysis to detect generation of ROS was performed. Briefly, after treatments with SsnB as mentioned above, cells were labeled with carboxy-H2DCFDA dye (25 μM) for 30 min at 37° C. Cells were trypsinized, washed, and re-suspended in PBS and fluorescence intensity was monitored at excitation wavelength 485 nm and emission wavelength 530 nm with a spectramax spectrophotometer (Molecular Devices, Sunnyvale, Calif.).
SsnB-induced generation of ROS was also evaluated by fluorometry assay. Neuroblastoma cells as treated above were incubated with H2DCFDA dye for 30 min and the fluorescence intensity was measured at 485 nm (excitation wavelength) and 530 nm (emission wavelength).

[2] = tested on: normal human cells (THP-1 cells, PMA-differentiated THP-1 macrophages, human umbilical vein endothelial cells, human aortic smooth muscle cells); assay: Cytotoxic response in normal human cells; assay type: cell-based; details: 1-20 μM and up to about 100 μM
neuroblastoma cells = assay: TUNEL assay for DNA fragmentation in cells; assay type: cell-based, human
Excerpt: Increased levels of ROS are known to induce oxidative stress which in turn cleaves DNA that leads to cell death. SsnB-induced DNA fragmentation in neuroblastoma cells was examined by terminal deoxynucleotidyl transferase dUTP nick end labeling (TUNEL) assay. In this assay, nicked DNA is identified by the addition of fluorophore-labeled dUTPs by enzyme terminal deoxynucleotidyl transferase (TdT) to the terminal ends of damaged DNA in apoptotic cells. The TUNEL-positive cells were quantitated by ImageJ programme and plotted. […] However, such TUNEL-positive cells were not detected in DMSO- or SsnB (1 μM)-treated cells.

O=c1occ2c3c(ccc(O)c13)Oc1ccc(O)cc1-2 [SsnB, 8,5′-dihydroxy-4-phenyl-5,2′-oxidoisocoumarin]
cell cycle progression vs DMSO (neuroblastoma cell lines; SsnB 1 μM): did not affect cell cycle progression | G0/G1 phase cells (neuroblastoma cell lines; SsnB 10 μM): decrease in G0/G1 phase cells | p53 expression vs DMSO (p53 in SH-SY5Y cells): Increased expression of p53 | H2DCFDA fluorescence intensity vs DMSO ([1]; SsnB 1 μM, nonsignificant): almost similar | H2DCFDA fluorescence intensity vs DMSO ([1]; SsnB 10 μM, p<0.05): significantly increased | cytotoxic response [2]: No cytotoxic response | number of TUNEL-positive cells vs control (neuroblastoma cells; SsnB 1 μM, nonsignificant): almost similar to DMSO-treated samples | number of TUNEL-positive cells vs control (neuroblastoma cells; SsnB 10 μM, all neuroblastoma cells): significantly higher
